Data from patent US5472959A, “Carboxyalkyl derivatives useful as inhibitors of enkephalinase and ace” (Merrell Dow Pharmaceuticals Inc., priority 1994, dated 1995).

How the values were obtained:
[1] = Needleman, Hypertension 7, 469 (1985), cited from earlier work
[2] = target: T1, Enkephalinase (Rattus norvegicus, UniProt P07861); assay: Enkephalinase inhibition, fluorometric assay with dansyl-D-AlaGly(p-nitro)PheGly; format: biochemical; details: substrate of enkephalinase, 50 mM HEPES pH 7.4, 25° C.
T1 construct: Enkephalinase is partially purified from rat kidney; from tissue; host or cells: rat kidney (microvilli fraction), further purified by Mono Q anion exchange
T1 sequence (P07861 1-750): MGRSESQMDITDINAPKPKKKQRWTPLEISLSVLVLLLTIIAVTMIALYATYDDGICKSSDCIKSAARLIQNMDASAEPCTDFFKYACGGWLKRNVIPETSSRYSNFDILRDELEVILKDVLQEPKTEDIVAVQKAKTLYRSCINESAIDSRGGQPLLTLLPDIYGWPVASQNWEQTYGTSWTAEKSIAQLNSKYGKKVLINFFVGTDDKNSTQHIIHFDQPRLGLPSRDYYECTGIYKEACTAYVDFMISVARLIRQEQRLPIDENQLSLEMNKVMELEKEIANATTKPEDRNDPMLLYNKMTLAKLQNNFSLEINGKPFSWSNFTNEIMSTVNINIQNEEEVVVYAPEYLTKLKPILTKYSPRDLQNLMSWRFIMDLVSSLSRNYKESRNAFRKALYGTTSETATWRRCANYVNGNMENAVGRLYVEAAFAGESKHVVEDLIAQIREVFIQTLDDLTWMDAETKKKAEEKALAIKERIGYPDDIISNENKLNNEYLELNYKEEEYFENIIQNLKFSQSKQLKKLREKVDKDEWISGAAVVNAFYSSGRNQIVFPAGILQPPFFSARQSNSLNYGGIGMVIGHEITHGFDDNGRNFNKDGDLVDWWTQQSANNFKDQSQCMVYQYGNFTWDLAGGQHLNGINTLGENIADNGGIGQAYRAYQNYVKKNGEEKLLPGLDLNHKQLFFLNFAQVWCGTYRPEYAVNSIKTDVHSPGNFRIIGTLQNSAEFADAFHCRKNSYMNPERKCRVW
Description: Enkephalinase is partially purified from rat kidney. The enzyme is extracted from the microvilli fraction by using Triton X-100 according to the method of Malfroy and Schwartz [Biol. Chem. 259, 14365-14370 (1984)] or by using a proteolytic treatment according to the method of Almenoff and Orlowski [Biochem. 22, 590-599 (1983)]. The enzyme is further purified by anion exchange chromatography (Mono Q™ column, Pharmacia) using a Pharmacia FPLC system. The enzyme activity may be measured by the fluorometric methods of Florentin et al. [
Anal. Biochem. 141, 62-69 (1984)] or of Almenoff and Orlowski [Neurochemistry 42, 151-157 (1984)]. The enzyme is assayed in 50 mM HEPES buffer (pH 7.4) in a 3.0 mL reaction volume containing 12 μM of the substrate dansyl-D-AlaGly(p-nitro)PheGly (Km =40μM) at 25° C. The substrate (and inhibitor) is added from a concentrated stock solution in DMSO (up to 0.1 mL DMSO final volume). The enzyme in a small volume (approximately 0.1 μg of FPLC purified protein) is added to initiate the reaction and the rate of fluorecense increase is recorded continuously using a fluorometer (excitation at 339 nm, emission at 562 nm).

Km [2] [µM] | Substance | binding affinity, lower end of range ([1]; affinities ranging from about) [pM] | binding affinity, upper end of range ([1]; affinities ranging to about) [nM]
 | ANP: family of naturally-occurring peptides which are involved in the homeostatic regulation of blood pressure, as well as sodium and water levels | ≥ 50 | ≤ 500
40 | dansyl-D-AlaGly(p-nitro)PheGly |  | 
